In patent US6720342B2, “Heterocyclic compounds and their preparation and use” (Novo Nordisk A/S, priority 1996, dated 2004):
Structures can show the parent of a compound that is named as a salt.

Target: muscarinic acetylcholine receptors
Assay: Inhibition of specific binding of 3H-Oxotremorine-M (3H-Oxo) to rat cortex membranes
Details: rat cortex homogenate, 1.0 nM 3H-Oxotremorine, 30 min at 25° C.
Description: The pharmacological properties of the compounds of the invention can be illustrated by determining their capability to inhibit the specific binding of ^3H-Oxotremorine-M (^3H-Oxo). Birdsdall N. J. M., Hulme E. C., and Burgen A. S. V. (1980). “The Character of Muscarinic Receptors in Different Regions of the Rat Brain”. Proc. Roy. Soc. London (Series B) 207, 1.
^3H-Oxo labels muscarinic receptor in the CNS (with a preference for agonist domains of the receptors). Three different sites are labelled by ^3H-Oxo. […] Using the present experimental conditions only the high and medium affinity sites are determined.
The inhibitory effects of compounds on ^3H-Oxo binding reflects the affinity for muscarinic acetylcholine receptors.
(§1) All preparations are performed at 0-4° C. unless otherwise indicated. Fresh cortex (0.1-1 g) from male Wistar rats (150-250 g) is homogenized for 5-10 s in 10 ml 20 mM Hepes pH: 7.4, with an Ultra-Turrax homogenizer. The homogenizer is rinsed with 10 ml of buffer and the combined suspension centrifuged for 15 min. at 40,000×g. The pellet is washed three times with buffer. In each step the pellet is homogenized as before in 2×10 ml of buffer and centrifuged for 10 min. at 40,000×g.
The final pellet is homogenized in 20 mM Hepes pH: 7.4 (100 ml per g of original tissue) and used for binding assay. Aliquots of 0.5 ml is added 25 μl of test solution and 25 μl of ^3H-Oxotremorine (1.0 nM, final concentration) mixed and incubated for 30 min. at 25° C. Non-specific binding is determined in triplicate using arecoline (1 μg/ml, final concentration) as the test substance. After incubation samples are added 5 ml of ice-cold buffer and poured directly onto Whatman GF/C glass fiber filters under suction and immediately washed 2 times with 5 ml of ice-cold buffer. The amount of radioactivity on the filters are determined by conventional liquid scintillation counting. Specific binding is total binding minus non specific binding.
Test substances are dissolved in 10 ml water (if necessary heated on a steambath for less than 5 min.) at a concentration of 2.2 mg/ml. 25-75% inhibition of specific binding must be obtained before calculation of IC50.
The test value will be given as IC50 (the concentration (nM) of the test substance which inhibits the specific binding of ^3H-Oxo by 50%).
(§2) IC50=(applied test substance concentration)×(Cx/Co−Cx)nM
(§3) where Co is specific binding in control assays and Cx is the specific binding in the test assay. (The calculations assume normal mass-action kinetics).

IC50 [nM]	SMILES
190	CC(C#Cc1ccc(F)cc1)=CCOc1nsnc1OC1CN2CCC1C2 (stereo not drawn) [Compound 22, Endo (E)-3-(3-(5-(4-fluorophenyl)-3-methyl-2-penten-4-yn-1-yloxy)-1,2,5-thiadiazol-4-yloxy)-1-azabicyclo[2.2.1]heptane]

Target: T1, muscarinic receptors (M1-site, pirenzepine sensitive site) (Rattus norvegicus, UniProt P08482)
T1 construct: Fresh cortex (0.1-1 g) from male Wistar rats (150-200 g) is homogenized; from tissue; host or cells: rat (male Wistar) cerebral cortex membranes
T1 sequence (P08482 1-460): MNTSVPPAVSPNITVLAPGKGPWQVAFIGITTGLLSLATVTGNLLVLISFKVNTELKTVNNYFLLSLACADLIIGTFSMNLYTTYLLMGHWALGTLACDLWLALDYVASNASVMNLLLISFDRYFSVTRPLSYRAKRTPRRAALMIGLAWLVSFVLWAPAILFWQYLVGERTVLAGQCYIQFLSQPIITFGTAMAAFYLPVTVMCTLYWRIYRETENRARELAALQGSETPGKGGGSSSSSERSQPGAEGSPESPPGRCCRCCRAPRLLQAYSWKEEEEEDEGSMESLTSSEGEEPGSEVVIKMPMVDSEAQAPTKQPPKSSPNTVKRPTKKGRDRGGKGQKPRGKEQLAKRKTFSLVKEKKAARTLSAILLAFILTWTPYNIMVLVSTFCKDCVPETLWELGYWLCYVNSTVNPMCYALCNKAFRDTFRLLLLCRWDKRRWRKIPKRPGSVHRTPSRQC
Assay: Inhibition of 3H-PRZ (pirenzepine, [N-methyl-3H]) binding to rat cerebral cortex membranes
Details: 1.0 nM 3H-Pirenzepine, 60 min at 20° C.
Experimental: Furthermore the pharmacological properties of the compounds of the invention can also be illustrated by determining their capability to inhibit ^3H-PRZ (pirenzepine, [N-methyl-^3H]) binding to rat cerebral cortex membranes. Pirenzepine binds selectively to subtype of muscarinic receptors. Historically the type is named the M1-site, whereas pirenzepine sensitive site would be more appropriate. Although selective for M1-sites pirenzepine also interact with M2-sites.
as §1, with “rats (150-200” for “rats (150-250”, “5-10 s.” for “5-10 s”, “with 2×10” for “with 10”, “15 min” for “15 min.”, “in 3×10” for “in 2×10”, “10 min” for “10 min.”
The final pellet is homogenized in 20 mM Hepes pH: 7.4 (100 ml per g of original tissue) and used for binding assay. Aliquots of 0.5 ml is added 20 μl of test solution and 25 μl of ^3H-Pirenzepine (1.0 nM, final conc.), mixed and incubated for 60 min at 20° C. Non-specific binding is determined in triplicate using atropine (1 μg/ml, final conc.) as the test substance. After incubation samples are added 5 ml of ice-cold buffer and poured directly onto Whatman GF/C glass fiber filters under suction and immediately washed 2 times with 5 ml of ice-cold buffer. The amount of radioactivity on the filters are determined by conventional liquid scintillation counting. Specific binding is total binding minus non-specific binding.
Test substances are dissolved in 10 ml water, at a concentration of 0.22 mg/ml. 25-75% inhibition of specific binding must be obtained before calculation of IC50.
The test value will be given as IC50 (the concentration (nM) of the test substance which inhibits the specific binding of ^3H-PRZ by 50%).
as §2, §3

IC50 [nM]	SMILES
50	CC(C#Cc1ccc(F)cc1)=CCOc1nsnc1OC1CN2CCC1C2 (stereo not drawn) [Compound 22, Endo (E)-3-(3-(5-(4-fluorophenyl)-3-methyl-2-penten-4-yn-1-yloxy)-1,2,5-thiadiazol-4-yloxy)-1-azabicyclo[2.2.1]heptane]

Tested on: not given
Assay: not given
Details: not given

melting point [°C]	SMILES
175 to 177	Fc1cccc(C#CCOc2nsnc2OC2CN3CCC2C3)c1 (stereo not drawn) (as salt: oxalate) [Compound 28, Endo 3-(3-(3-(3-fluorophenyl)-2-propyn-1-yloxy)-1,2,5-thiadiazol-4-yloxy-1-azabicyclo[2.2.1]heptane, oxalate]
114 to 115	FC(F)(F)CCCSc1nsnc1OC1CN2CCC1C2 (stereo not drawn) (as salt: oxalate) [Compound 30, Endo 3-(3-(4,4,4-trifluorobutylthio)-1,2,5-thiadiazol-4-yloxy)-1-azabicyclo-[2.2.1]heptane, oxalate]
144 to 145	Fc1ccc(COc2nsnc2OC2CN3CCC2C3)cc1 (stereo not drawn) (as salt: oxalate) [Compound 9, Endo 3-(3-[4-fluorobenzyloxy]-1,2,5-thiadiazol-4-yloxy)-1-azabicyclo-[2.2.1]heptane, oxalate]
112 to 114	Fc1cc(C(F)(F)F)ccc1COc1nsnc1OC1CN2CCC1C2 (stereo not drawn) (as salt: oxalate) [Compound 16, Endo 3-(3-[2-fluoro-4-(trifluoromethyl)-benzyloxy]-1,2,5-thiadiazol-4-yloxy)-1-azabicyclo[2.2.1]heptane, oxalate]
131 to 135	FC(F)(F)c1cccc(C#CCOc2nsnc2OC2CN3CCC2C3)c1 (stereo not drawn) (as salt: oxalate) [Compound 20, Endo 3-(3-(3-(3-trifluoromethylphenyl)-2-propynyl-1-oxy)-1,2,5-thiadiazol-4-yloxy)-1-azabicyclo[2.2.1]heptane, oxalate]
118 to 122	Clc1ccc(C#CCOc2nsnc2OC2CN3CCC2C3)cc1 (stereo not drawn) (as salt: oxalate) [Compound 18, Endo 3-(3-[3-(4-chlorophenyl)-2-propynyl-1-oxy]-1,2,5-thiadiazol-4-yloxy)-1-azabicyclo[2.2.1]heptane, oxalate]
82 to 84	CC(C#Cc1ccc(F)cc1)=CCOc1nsnc1OC1CN2CCC1C2 (stereo not drawn) [Compound 22, Endo (E)-3-(3-(5-(4-fluorophenyl)-3-methyl-2-penten-4-yn-1-yloxy)-1,2,5-thiadiazol-4-yloxy)-1-azabicyclo[2.2.1]heptane]
98 to 100	Fc1ccc(CSc2nsnc2OC2CN3CCC2C3)c(F)c1 (stereo not drawn) (as salt: oxalate) [Compound 33, Endo 3-(3-[2,4-difluorobenzylthio]-1,2,5-thiadiazol-4-yloxy)-1-azabicyclo-[2.2.1]heptane, oxalate]

The remaining lines, values behind:

SMILES	melting point [°C]
C(#Cc1ccccc1)COc1nsnc1OC1CN2CCC1C2 (stereo not drawn) (as salt: oxalate) [Compound 5, Endo 3-(3-[3-phenyl-2-propynyl-1-oxy]-1,2,5-thiadiazol-4-yloxy)-1-azabicyclo[2.2.1]heptane, oxalate]	158 to 159
C1CC(COc2nsnc2OC2CN3CCC2C3)C1 (stereo not drawn) (as salt: oxalate) [Compound 41, Endo 3-(3-cyclobutylmethyloxy-1,2,5-thiadiazol-4-yloxy)-1-azabicyclo-[2.2.1]heptane, oxalate]	96 to 99
FCCSc1nsnc1OC1CN2CCC1C2 (stereo not drawn) (as salt: oxalate) [Compound 34, Endo 3-(3-[2-fluoroethyl-1-thio]-1,2,5-thiadiazol-4-yloxy)-1-azabicyclo-[2.2.1]heptane, oxalate]	131 to 133
CCCSc1nsnc1OC1CN2CCC1C2 (stereo not drawn) (as salt: oxalate) [Compound 2, Endo 3-(3-propylthio-1,2,5-thiadiazol-4-yloxy)-1-azabicyclo[2.2.1]heptane, oxalate]	136 to 137
FC(F)(F)COc1nsnc1OC1CN2CCC1C2 (stereo not drawn) (as salt: oxalate) [Compound 40, Endo 3-(3-[2,2,2-trifluoroethyl-1-oxy]-1,2,5-thiadiazol-4-yloxy)-1-azabicyclo[2.2.1]heptane, oxalate]	153 to 156
N#CCCSc1nsnc1OC1CN2CCC1C2 (stereo not drawn) (as salt: oxalate) [Compound 32, Endo 3-(3-[2-cyanoethylthio]-1,2,5-thiadiazol-4-yloxy)-1-azabicyclo-[2.2.1]heptane, oxalate]	168 to 169
C(#Cc1cccnc1)COc1nsnc1OC1CN2CCC1C2 (stereo not drawn) (as salt: oxalate) [Compound 23, Endo 3-(3-(3-pyridyl)-2-propyn-1-yloxy)-1,2,5-thiadiazol-4-yloxy)-1-azabicyclo[2.2.1]heptane, dioxalate]	136 to 139
CCC(C#Cc1cccc(OC)c1)Oc1nsnc1OC1CN2CCC1C2 (stereo not drawn) (as salt: oxalate) [Compound 19, Endo 3-(3-[1-(3-methoxyphenyl)-1-pentyn-3-yloxy]-1,2,5-thiadiazol-4-yloxy)-1-azabicyclo[2.2.1]heptane, oxalate]	98 to 101
CC#CCOc1nsnc1OC1CN2CCC1C2 (stereo not drawn) (as salt: oxalate) [Compound 11, Endo 3-(3-[2-butynyl-1-oxy]-1,2,5-thiadiazol-4-yloxy)-1-azabicyclo[2.2.1]heptane, oxalate]	194 to 196
C(#Cc1ccoc1)COc1nsnc1OC1CN2CCC1C2 (stereo not drawn) (as salt: oxalate) [Compound 26, Endo 3-(3-(3-(3-furyl)-2-propyn-1-yloxy)-1,2,5-thiadiazol-4-yloxy)-1-azabicyclo[2.2.1]heptane, oxalate]	146 to 148
CC(C)=CCOc1nsnc1OC1CN2CCC1C2 (stereo not drawn) (as salt: oxalate) [Compound 7, Endo 3-(3-[3-methyl-2-butenyl-1-oxy]-1,2,5-thiadiazol-4-yloxy)-1-azabicyclo[2.2.1]heptane, oxalate]	112 to 115
FC(F)(F)CCCOc1nsnc1OC1CN2CCC1C2 (stereo not drawn) (as salt: oxalate) [Compound 15, Endo 3-(3-[4,4,4-trifluorobutyl-1-oxy]-1,2,5-thiadiazol-4-yloxy)-1-azabicyclo[2.2.1]heptane, oxalate]	135 to 137
